Assay results from publication PMC12428754, “Testing Strategies for Metabolite-Mediated Neurotoxicity” (International Journal of Molecular Sciences, 2025).
Where two headings read alike, the source gives them in different places.

Columns and labels:
LUHMES cells [1] = test: MitoMet (UKN4b) neurite outgrowth assay; assay type: cell-based, human; conditions: for IC25: Homo sapiens, benchmark response 25%, neurite area, 24 h exposure, three independent experiments, read-out: BMC25 neurite outgrowth; for fold change between BMC25 values of parent and metabolite (potency ratio, parent divided by metabolite): listed under the metabolite, >1 = metabolite more potent
Method: Figure 1 (A) A strategy scheme to assess metabolite-mediated hazard in NAMs used for neurotoxicity or developmental neurotoxicity. Parent and metabolite compounds are tested separately in the respective assay. This strategy is applicable when there is prior knowledge of metabolite formation. A decision rule based on the relative toxicities (X) of the parent and metabolite may be applied to decide whether next-generation risk assessment (NGRA) should be applied to the metabolite. The value of X may be defined according to the problem formulation and the NAM used. (B) An assay scheme of the neurite outgrowth assay used here for exemplification: Proliferating LUHMES cells were replated one day before differentiation was initiated (day −1). After two days (day 2) in differentiation medium, the cells were replated into assay format (96-well). At this point, neurite growth was re-initiated. The cells were treated with toxicants 1 h after replating. Neurite outgrowth and viability were determined 24 h later, using automated high content imaging. (C) Comparison of neurite outgrowth of cultures treated with bromethalin and desmethyl-bromethalin one exemplary parent/metabolite pair (chemical structures shown). […] The curves are based on data from three independent experiments and were fitted using a four-parameter Hill function. Data points shown are arithmetic means of data from independent experiments ±SEM. In each independent experiment, the technical replicates were measured and averaged. A benchmark response (BMR) of 25% was used as specified in the detailed assay description, and the respective benchmark concentration (BMC25) was determined. […] (D) Microscopic images of calcein-stained LUHMES cells. Similar images are used for neurite quantification. Treatment with 40 nM of the parent (left) or metabolite (right). The scale bar in orange corresponds to 50 µm. […] It stands under panel C and to the right of panel D, and was assigned to C.
(§1) The MitoMet neurite outgrowth assay was performed as previously described. In brief, all cell culture dishes and flasks were pre-coated with 50 μg/mL poly-l-ornithine (PLO) and 1 μg/mL fibronectin. Proliferating LUHMES cells were maintained in AdvDMEM/F12 containing L-glutamine (2 mM), N2 supplement (1x), and FGF (40 ng/mL). For pre-differentiation, the cells were replated at a density of 46,000 cells/cm^2 one day prior to the induction of differentiation (defined as the day of differentiation, Day −1). Differentiation was initiated by exchanging the culture medium for AdvDMEM/F12 supplemented with L-glutamine (2 mM), N2 supplement (1x), dibutyryl-cAMP (1 mM), tetracycline (1 µg/mL), and GDNF (2 ng/mL). After two days of differentiation (Day 2), the cells were replated (100,000 cells/cm^2) into 96-well plates. The final assay medium consisted of glucose-free AdvDMEM/F12 supplemented with galactose (18 mM), L-glutamine (2 mM), and tetracycline (1 µg/mL). One hour after replating, the cells were treated with a 10× concentrated stock solution of the test compound. Neurite outgrowth and viability were determined 24 h later, using automated high content imaging.
The image acquisition and analysis were conducted according to established protocols. The cells were stained with Hoechst H-33342 (1 µg/mL) to visualise nuclei and calcein-AM (1 µM) to label viable cell structures. Fluorescent images were acquired using an automated imaging system.

[2] = for extent of metabolite formation / cofactor (NADPH) dependence of metabolite formation: result in words; for cofactor (NADPH) dependence of metabolite formation: human liver microsomes ± NADPH; for metabolite formation over time: samples every 30 min for 2 h
Method: Parent compounds were incubated at final concentrations of either (a) 5 µM or (b) 50 µM (for chlorfenapyr) with pooled human liver microsomes (HLM; mixed gender, n = 150; BioIVT; West Sussex, UK) at corresponding protein concentrations of (a) 0.52 mg/mL or (b) 5.2 mg/mL. Incubations were performed in the absence or presence of NADPH at final concentrations of (a) 1 mM or (b) 10 mM, respectively, using a thermostated orbital shaker at 37 °C and 150 rpm. Reactions were terminated at designated time points by the addition of acetonitrile/methanol (3:1, v/v). Samples were then centrifuged at 10,000× g for 10 min, and the resulting supernatants were analysed by LC-MS/MS.
All analytes were measured using an Acquity UPLC H-Class system coupled to a Xevo TQ-S micro mass spectrometer (Waters). Chromatographic separation was performed on an Acquity UPLC BEH C18 column (2.1 × 50 mm, 1.7 µm) with a mobile phase consisting of 0.1% formic acid in water (A) and acetonitrile (B). Unless otherwise stated, the column was maintained at 30 °C and operated at a flow rate of 0.4 mL/min. The standard gradient was 95% A from 0 to 1.0 min, decreased to 2% A by 1.5 min, held until 4.0 min, returned to 95% A at 4.3 min, and held until 5.0 min. […] The mass spectrometer operated in electrospray ionisation (ESI) mode. Compound-specific MRM transitions, cone voltages, and collision energies for all analytes are listed in Supplementary Table S2.
Int. J. Mol. Sci. 2025, 26, x FOR PEER REVIEW 3 of 5
Supplementary Figure S3: Quantification of specific metabolite formation from selected parent/metabolite pairs in a human liver microsomes (HLM) assay. Parent compounds (PAR) were incubated at a concentration of 5 µM (50 µM for chlorfenapyr) with HLM in the absence (dashed line, open symbols) or presence of NADPH (solid lines, closed symbols). Samples were taken every 30 min for 2 h (+NADPH) or at 2 h only (- NADPH). The remaining fraction of the PAR was quantified for each sample. Additionally, one key metabolite (MET) was measured. Its amount is expressed as fraction of PAR converted to MET, assuming an equimolar PAR to MET reaction, 100 % indicates a complete conversion. The middle-dashed line indicates a metabolite formation of at least 10% of PAR. Data are means of two measurements n.d. = not detected.
(1 picture or pasted object on this page, not shown here)

LUHMES cells [3] = tested on: LUHMES cells
Method: Figure 4 A strategy to incorporate metabolic competence into in vitro DNT testing methods. (A) A schematic overview of a sequential metabolism and testing approach. The “metabolisation module” uses hepatic post-mitochondrial fractions (S9) to generate metabolite mixtures in the presence or absence of cofactors (NADPH, glucose-6-phosphate, MgCl2). These metabolite mixtures are tested in the “testing module” in a concentration-dependent manner after serial pre-dilutions. Metabolite mixtures are added as a fraction of 10% to the media volume of the “testing module”. The testing module may be a cell-based neurotoxicity (NT) or developmental neurotoxicity (DNT) assay, such as the neurite outgrowth or migration assay. Here, the Mito-Met neurite outgrowth assay, as in Figure 1, was used. […] The curves represent data from three independent experiments and were fitted using a four-parameter Hill function. […] The data represent three independent experiments. The indicated concentrations are “testing module” concentrations.
To further evaluate our modular pre-activation strategy for identifying metabolite-mediated hazard, we tested a broader panel of compounds. For each compound (parent), a single concentration was used in the metabolisation module. The metabolite mixtures were generated in the absence or presence of NADPH. These metabolite mixtures were serially diluted and assessed using the MitoMet neurite outgrowth assay. As a measure of potency, EC25 values were determined, and potency ratios were calculated to compare the effects of NADPH-dependent versus NADPH-independent metabolism.
Figure 5 The effect of NADPH-dependent hepatic metabolism on the DNT of selected compounds. (A) A strategy scheme to assess the effect of metabolic enzymes on the outcome of cell-based DNT assays. Metabolite mixtures are generated using the NADPH-(in)dependent metabolic activity of S9. NADPH-independent metabolism is shown in green (light grey). NADPH-dependent metabolism is shown in red (dark grey). […] (B–F) The concentration-dependent effect of metabolite mixtures on neurite outgrowth was measured as in Figure 1, with the following modifications: red-fluorescent-protein (RFP)-expressing LUHMES cells were used. As the assay endpoint, the RFP fluorescence of neurites was used instead of calcein staining. The curves represent data from three independent experiments and were fitted using a four-parameter Hill function. From this, an EC25 was calculated. Bold numbers indicate the fold changes between EC25 values of the NADPH-(in)dependent metabolite mixtures, with the direction of the arrow reflecting the shift in sensitivity. Note that the x-axes indicate nominal concentrations of parent compounds. […] Similar images were used for neurite quantification. The right image (red frame) of the pairs was obtained with NADPH. The black arrowheads above the curves indicate the experimental conditions used to record images. The scale bar in orange corresponds to 50 µm.
as §1, with “plates.” for “plates. The final assay medium consisted of glucose-free AdvDMEM/F12 supplemented with galactose (18 mM), L-glutamine (2 mM), and tetracycline (1 µg/mL). One hour after replating, the cells were treated with a 10× concentrated stock solution of the test compound. Neurite outgrowth and viability were determined 24 h later, using automated high content imaging.”

[4] = human liver microsomes, listed under the metabolite

C[C@H]1[C@H](OC(=O)CCC(=O)O)O[C@@H]2O[C@@]3(C)CC[C@H]4[C@H](C)CC[C@@H]1[C@@]24OO3 [Artesunate]
IC25 (LUHMES cells [1]): 3.4 µM | extent of metabolite formation ([2]; human liver microsomes): completely converted

CCCCNC(=O)n1c(NC(=O)OC)nc2ccccc21 [Benomyl]
IC25 (LUHMES cells [1]): 3.7 µM

COc1ccc2cc3[n+](cc2c1OC)CCc1cc2c(cc1-3)OCO2 [Berberine]
fold change between EC25 values of NADPH-(in)dependent metabolite mixtures (detoxification) (LUHMES cells [3]): 5 x | effect of metabolisation in the presence of NADPH on toxicity (LUHMES cells [3]; result in words): reduced

O=P1(N(CCCl)CCCl)NCCCO1 (stereo not shown) [Cyclophosphamide]
inhibition of neurite outgrowth without preincubation (LUHMES cells [3]; 100 µM, 50 µg/mL S9, no preincubation): No inhibition of neurite outgrowth | reduction of neurite outgrowth (LUHMES cells [3]; 100 µM, 50 µg/mL S9, with NADPH, 2 h preincubation): approximately 90% | neurite toxicity at low S9 concentrations (LUHMES cells [3]; 100 µM, S9 <10 µg/mL, 2 h incubation): did not lead to neurite toxicity | fold change between EC25 values of NADPH-independent and NADPH-dependent metabolite mixtures (toxification) (LUHMES cells [3]; rat liver S9 50 µg/mL in testing module, 2 h preincubation, RFP-LUHMES, toxicity increased with NADPH): > 25 x

C[C@H]1[C@@H](O)O[C@@H]2O[C@@]3(C)CC[C@H]4[C@H](C)CC[C@@H]1[C@@]24OO3 [Dihydroartemisinin]
IC25 (LUHMES cells [1]): 1.2 µM | fold change between BMC25 values of parent and metabolite (potency ratio, parent divided by metabolite) (LUHMES cells [1]): 3 fold | cofactor (NADPH) dependence of metabolite formation [2]: largely independently of NADPH | metabolite formation over time [2, 4]: time-dependent increase in metabolite formation

COC(=O)Nc1nc2ccc(Sc3ccccc3)cc2[nH]1 [Fenbendazole]
IC25 (LUHMES cells [1]): 0.047 µM

O=C(CCC[n+]1ccc(-c2ccc(Cl)cc2)cc1)c1ccc(F)cc1 [HPP+, haloperidol pyridinium ion]
IC25 (LUHMES cells [1]): 7.1 µM | fold change between BMC25 values of parent and metabolite (potency ratio, parent divided by metabolite) (LUHMES cells [1]): 4 fold | extent of metabolite formation ([2]; human liver microsomes): only trace amounts | metabolite formation over time [2, 4]: time-dependent increase in metabolite formation

O=C(CCCN1CCC(O)(c2ccc(Cl)cc2)CC1)c1ccc(F)cc1 [Haloperidol]
IC25 (LUHMES cells [1]): > 33 µM

O=P1(NCCCl)OCCCN1CCCl (stereo not shown) [Ifosfamide]
fold change between EC25 values of NADPH-independent and NADPH-dependent metabolite mixtures (toxification) (LUHMES cells [3]): > 10 x

CNC(C)Cc1ccc2c(c1)OCO2 (stereo not shown) [MDMA, methylenedioxymethamphetamine]
IC25 (LUHMES cells [1]): > 100 µM

C[n+]1ccc(-c2ccccc2)cc1 [MPP+, 1-methyl-4-phenylpyridinium]
IC25 (LUHMES cells [1]): 0.12 µM | cofactor (NADPH) dependence of metabolite formation [2]: largely independently of NADPH | metabolite formation over time [2, 4]: time-dependent increase in metabolite formation | conversion rate of parent to metabolite ([2]; human liver microsomes, up to 2 h, listed under the metabolite): approximately 10%

CN1CC=C(c2ccccc2)CC1 [MPTP, 1-methyl-4-phenyl-tetrahydropyridine]
IC25 (LUHMES cells [1]): > 100 µM

CC(N)Cc1ccc(O)c(O)c1 (stereo not drawn) [α-Methyldopamine]
IC25 (LUHMES cells [1]): 16 µM | fold change between BMC25 values of parent and metabolite (potency ratio, parent divided by metabolite) (LUHMES cells [1]): > 6 fold
